Measured values reported in patent US20090047567A1, “Biofuel cell, method for producing the same, electronic apparatus, enzyme-immobilized electrode, and method for producing the same” (SONY CORPORATION, priority 2007, published 2009).

Key:
diaphorase (DI) = assay: Michaelis constant Km and rate constant kcat of the enzymatic reaction using the electron mediator as a substrate (cyclic voltammetry in a solution containing NADH and DI); format: biochemical, Bacillus stearothermophilus; conditions: for ten times Km: 10 x Km of the electron mediator for DI, read-out: ten times the determined Km; for Km / kcat: electron mediator as substrate of DI, solution containing sufficient amounts of NADH and DI
Excerpt: GDH (EC1. 1. 1. 47) derived from Bacillus sp. was used as GDH, and DI(EC. 1. 6. 99. −) derived from Bacillus stearothermophilus was used as DI. Both were purchased from Amano Enzyme Inc. (Japan) and directly used without further purification. NADH, poly-L-lycine (PLL, Mw=about 93,800), and sodium polyacrylate (PAANa, Mw=about 240,000) were purchased from Sigma-Aldrich Co. VK3 was purchased from Nacalai Tesque, Inc. (Japan).
Then, the method for measuring the Michaelis constant Km and rate constant kcat of the enzymatic reaction using the electron mediator as a substrate is described.
The following electrochemical equation is established between the Michaelis constant Km and rate constant kcat (R. Matsumoto et al, J. Electroanal. Chem. 535 (2002)37).
wherein Is^lim is the current value of a flat portion of a curve obtained by cyclic voltammetry, nM is the number of electrons of the electron mediator, ns is the number of electrons of the substrate, F is the Faraday constant, A is the electrode surface area, DM is the diffusion constant of the substrate, [E] is the enzyme concentration, and [M]* is the concentration of the electron mediator.

[1] = Redox potential of the electron mediator by cyclic voltammetry in solution; format: physicochemical
[2] = Cyclic voltammetry of the GC bio-anode with immobilized VK3, no glucose; format: physicochemical; conditions: immobilized VK3 on GC bio-anode; 0.1 M phosphate buffer pH 7.0, glucose absent; vs. Ag|AgCl
Procedure: The surface of a glassy carbon (GC) electrode of 3 mm in diameter which was purchased from BAS Inc. was polished with alumina powder having a particle diameter of 0.05 μm and washed with distilled water. Then, GDH, NADH, DI, and VK3 were immobilized on the GC electrode by a polyion complex method using electrostatic interaction between PAAcNa as polyanion and poly-L-lycine (PLL) as polycation according to the following procedures.
On the GC electrode, 10 μl of an aqueous PLL solution (2% (w/v)), 8 μl of a GDH solution (1 U/μl in a 0.1 M phosphate buffer solution (NaH2PO4 buffer solution) (pH 7.0)), 8 μl of a DI solution (10 U/μl in a phosphate buffer solution), 2 μl of a NADH solution (0.9 μmol/μl in a phosphate buffer solution), 4 μl of a VK3 solution (0.29 M in acetone), and 4 μl of an aqueous PAAcNa solution (0.066% (w/v)) were added in that order. After each of the addition steps, drying was performed at 40° C. for 10 minutes. Before electrochemical measurement, the GC electrode (referred to as a “GC bio-anode” hereinafter) on which an immobilized layer had been formed as described above was rinsed with distilled water for 5 minutes.
Cyclic voltammetry (CV) was performed using the GC bio-anode as a working electrode. […]

For `NC1=C(C(=O)O)C(=O)c2ccccc2C1=O` [ACNQ, 2-amino-3-carboxy-1,4-naphthoquinone], the ten times Km (diaphorase (DI)) was 20 µM, the Km (diaphorase (DI)) was 2 µM and the kcat (diaphorase (DI)) was 400 s⁻¹. The “E^o′ vs Ag|AgCl” value [1] was −0.26.
`NC1=CC(=O)c2ccccc2C1=O` [ANQ, 2-amino-1,4-naphthoquinone] showed a ten times Km (diaphorase (DI)) of 360 µM, a Km (diaphorase (DI)) of 36 µM and a kcat (diaphorase (DI)) of 310 s⁻¹. For the same compound, the “E^o′ vs Ag|AgCl” value [1] was −0.35.
`CC1=CC(=O)c2ccccc2C1=O` [VK3, 2-methyl-1,4-naphthoquinone] showed a ten times Km (diaphorase (DI)) of 4 µM, a Km (diaphorase (DI)) of 0.4 µM and a kcat (diaphorase (DI)) of 630 s⁻¹. The “E^o′ vs Ag|AgCl” value [1] was −0.22 and the “middle point potential of oxidation and reduction waves” value [2] was −0.17 V.
